PMC5513037, “Examining the influence of specificity ligands and ATP-competitive ligands on the overall effectiveness of bivalent kinase inhibitors” (Proteome Science, 2017)

Experiments:
Test in all cases: KAM-matrix competition in K562 lysate;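 as to 0.001 uM KAM: median log10 fold change of treatment over DMSO control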;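 as to 0.01 uM KAM: median log10 fold change of treatment over DMSO control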;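 as to 0.1 uM KAM: median log10 fold change of treatment over DMSO control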;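 as to 1 uM KAM: median log10 fold change of treatment over DMSO control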;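 as to 10 uM KAM: median log10 fold change of treatment over DMSO control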
Format in all cases: binding
BUB1 = target: T1, BUB1 (Homo sapiens, UniProt O43683);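 as to 0.001 uM KAM: median log10 fold change of treatment over DMSO control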;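 as to 0.01 uM KAM: median log10 fold change of treatment over DMSO control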;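 as to 0.1 uM KAM: median log10 fold change of treatment over DMSO control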;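 as to 1 uM KAM: median log10 fold change of treatment over DMSO control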;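 as to 10 uM KAM: median log10 fold change of treatment over DMSO control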
T1 construct: endogenous in cells; host or cells: K562
Method: (§1) Supplement 12953_2017_125_MOESM1_ESM.zip/MS_Supp Info.xlsx, sheet "KAM" | column: 10 uM KAM; 1 uM KAM; 0.1 uM KAM; 0.01 uM KAM; 0.001 uM KAM; RB50

CDK5 = target: T2, CDK5 (Homo sapiens, UniProt Q00535)
T2 construct: endogenous in cells; host or cells: K562
Method: as §1

FAM20B = target: T3, FAM20B (Homo sapiens, UniProt O75063);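 as to 0.001 uM KAM: median log10 fold change of treatment over DMSO control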;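 as to 0.01 uM KAM: median log10 fold change of treatment over DMSO control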;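 as to 0.1 uM KAM: median log10 fold change of treatment over DMSO control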;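 as to 1 uM KAM: median log10 fold change of treatment over DMSO control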;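 as to 10 uM KAM: median log10 fold change of treatment over DMSO control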
T3 construct: endogenous in cells; host or cells: K562
T3 sequence (O75063 1-409): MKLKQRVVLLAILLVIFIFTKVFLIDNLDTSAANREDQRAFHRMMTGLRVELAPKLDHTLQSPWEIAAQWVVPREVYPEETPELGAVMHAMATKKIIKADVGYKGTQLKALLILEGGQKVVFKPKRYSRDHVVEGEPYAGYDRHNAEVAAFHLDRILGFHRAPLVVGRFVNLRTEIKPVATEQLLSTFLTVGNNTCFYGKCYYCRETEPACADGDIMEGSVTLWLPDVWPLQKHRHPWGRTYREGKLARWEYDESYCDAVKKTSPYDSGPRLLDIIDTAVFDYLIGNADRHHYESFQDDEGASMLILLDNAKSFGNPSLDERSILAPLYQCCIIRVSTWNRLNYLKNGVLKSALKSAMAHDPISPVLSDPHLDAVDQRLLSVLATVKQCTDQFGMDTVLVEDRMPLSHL
Method: as §1

FER = target: T4, FER (Homo sapiens, UniProt P16591)
T4 construct: endogenous in cells; host or cells: K562 lysate
Method: as §1

LIMK2 = target: T5, LIMK2 (Homo sapiens, UniProt P53671);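 as to 0.001 uM KAM: median log10 fold change of treatment over DMSO control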;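 as to 0.01 uM KAM: median log10 fold change of treatment over DMSO control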;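 as to 0.1 uM KAM: median log10 fold change of treatment over DMSO control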;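 as to 1 uM KAM: median log10 fold change of treatment over DMSO control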;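 as to 10 uM KAM: median log10 fold change of treatment over DMSO control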
T5 construct: endogenous in cells; host or cells: K562
Method: as §1

PHKG2 = target: T6, PHKG2 (Homo sapiens, UniProt P15735)
T6 construct: endogenous in cells; host or cells: K562 cell lysate
T6 sequence (P15735 1-406): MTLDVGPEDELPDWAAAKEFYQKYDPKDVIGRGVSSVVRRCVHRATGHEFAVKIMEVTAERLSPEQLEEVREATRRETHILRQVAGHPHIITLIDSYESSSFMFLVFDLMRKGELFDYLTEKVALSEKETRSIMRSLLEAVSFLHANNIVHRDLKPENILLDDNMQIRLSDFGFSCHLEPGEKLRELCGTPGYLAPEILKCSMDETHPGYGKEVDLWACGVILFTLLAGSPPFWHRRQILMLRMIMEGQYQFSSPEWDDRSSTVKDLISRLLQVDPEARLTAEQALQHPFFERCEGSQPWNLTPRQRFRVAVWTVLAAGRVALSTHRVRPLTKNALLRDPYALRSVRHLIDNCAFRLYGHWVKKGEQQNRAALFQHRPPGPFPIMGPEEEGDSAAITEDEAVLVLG
Method: as §1

PTK2 = target: T7, PTK2 (Homo sapiens, UniProt Q05397)
T7 construct: endogenous in cells; host or cells: K562
Method: as §1

STK17A = target: T8, STK17A (Homo sapiens, UniProt Q9UEE5)
T8 construct: endogenous in cells; host or cells: K562 cell lysate
T8 sequence (Q9UEE5 1-414): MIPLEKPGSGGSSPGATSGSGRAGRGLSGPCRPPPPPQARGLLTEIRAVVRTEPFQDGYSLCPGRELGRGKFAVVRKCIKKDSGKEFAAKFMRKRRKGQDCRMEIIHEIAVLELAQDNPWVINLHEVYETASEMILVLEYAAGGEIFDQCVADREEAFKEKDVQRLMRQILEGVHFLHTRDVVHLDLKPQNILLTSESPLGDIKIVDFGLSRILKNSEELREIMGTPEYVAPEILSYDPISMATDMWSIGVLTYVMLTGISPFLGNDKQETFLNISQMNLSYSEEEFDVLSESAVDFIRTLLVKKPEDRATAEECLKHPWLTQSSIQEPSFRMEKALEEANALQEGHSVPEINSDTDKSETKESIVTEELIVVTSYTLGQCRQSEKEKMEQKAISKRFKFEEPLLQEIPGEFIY
Method: as §1

VRK1 = target: T9, VRK1 (Homo sapiens, UniProt Q99986);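 as to 0.001 uM KAM: median log10 fold change of treatment over DMSO control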;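 as to 0.01 uM KAM: median log10 fold change of treatment over DMSO control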;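 as to 0.1 uM KAM: median log10 fold change of treatment over DMSO control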;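 as to 1 uM KAM: median log10 fold change of treatment over DMSO control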;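 as to 10 uM KAM: median log10 fold change of treatment over DMSO control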
T9 construct: endogenous in cells; host or cells: K562
T9 sequence (Q99986 1-396): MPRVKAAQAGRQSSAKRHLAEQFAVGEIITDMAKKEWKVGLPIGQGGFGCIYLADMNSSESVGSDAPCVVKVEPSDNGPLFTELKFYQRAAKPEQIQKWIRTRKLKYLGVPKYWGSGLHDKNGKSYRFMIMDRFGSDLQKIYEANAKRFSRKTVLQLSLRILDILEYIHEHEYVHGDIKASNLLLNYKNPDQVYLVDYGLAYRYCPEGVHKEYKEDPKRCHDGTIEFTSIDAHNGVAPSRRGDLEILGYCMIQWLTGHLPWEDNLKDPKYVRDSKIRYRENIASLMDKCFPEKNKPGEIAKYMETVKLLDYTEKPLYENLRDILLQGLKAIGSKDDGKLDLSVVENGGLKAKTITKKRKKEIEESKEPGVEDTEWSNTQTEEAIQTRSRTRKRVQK
Method: as §1

[1] = KAM 0.001-10 uM, read-out: RB50 (the source's name)
[2] = read-out: RB50 (the source's name)

T5 sequence (P53671 whole entry): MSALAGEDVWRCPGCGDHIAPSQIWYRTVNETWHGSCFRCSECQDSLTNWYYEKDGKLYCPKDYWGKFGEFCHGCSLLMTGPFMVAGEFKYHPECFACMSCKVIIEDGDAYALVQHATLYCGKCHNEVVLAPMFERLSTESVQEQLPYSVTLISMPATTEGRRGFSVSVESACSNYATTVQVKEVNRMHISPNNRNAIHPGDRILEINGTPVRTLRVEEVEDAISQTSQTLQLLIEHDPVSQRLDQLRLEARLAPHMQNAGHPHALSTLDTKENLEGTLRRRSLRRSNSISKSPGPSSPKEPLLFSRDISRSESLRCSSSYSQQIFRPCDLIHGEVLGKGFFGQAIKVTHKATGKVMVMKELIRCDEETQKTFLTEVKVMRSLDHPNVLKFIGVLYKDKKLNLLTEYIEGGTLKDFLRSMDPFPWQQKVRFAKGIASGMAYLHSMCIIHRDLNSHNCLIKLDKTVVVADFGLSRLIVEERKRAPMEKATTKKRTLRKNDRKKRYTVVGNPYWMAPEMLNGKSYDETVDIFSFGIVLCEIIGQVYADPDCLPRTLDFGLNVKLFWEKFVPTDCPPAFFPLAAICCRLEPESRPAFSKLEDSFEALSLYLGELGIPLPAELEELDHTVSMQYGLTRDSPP
T2 sequence (Q00535 whole entry): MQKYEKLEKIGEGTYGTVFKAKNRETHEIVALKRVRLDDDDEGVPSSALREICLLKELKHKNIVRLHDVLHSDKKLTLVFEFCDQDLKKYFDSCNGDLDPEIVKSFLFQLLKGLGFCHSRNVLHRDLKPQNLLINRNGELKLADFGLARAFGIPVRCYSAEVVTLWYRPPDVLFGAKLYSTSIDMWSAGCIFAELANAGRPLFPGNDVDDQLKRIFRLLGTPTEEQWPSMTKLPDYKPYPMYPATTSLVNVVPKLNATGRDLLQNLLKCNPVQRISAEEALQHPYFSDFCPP
T7 sequence (Q05397 whole entry): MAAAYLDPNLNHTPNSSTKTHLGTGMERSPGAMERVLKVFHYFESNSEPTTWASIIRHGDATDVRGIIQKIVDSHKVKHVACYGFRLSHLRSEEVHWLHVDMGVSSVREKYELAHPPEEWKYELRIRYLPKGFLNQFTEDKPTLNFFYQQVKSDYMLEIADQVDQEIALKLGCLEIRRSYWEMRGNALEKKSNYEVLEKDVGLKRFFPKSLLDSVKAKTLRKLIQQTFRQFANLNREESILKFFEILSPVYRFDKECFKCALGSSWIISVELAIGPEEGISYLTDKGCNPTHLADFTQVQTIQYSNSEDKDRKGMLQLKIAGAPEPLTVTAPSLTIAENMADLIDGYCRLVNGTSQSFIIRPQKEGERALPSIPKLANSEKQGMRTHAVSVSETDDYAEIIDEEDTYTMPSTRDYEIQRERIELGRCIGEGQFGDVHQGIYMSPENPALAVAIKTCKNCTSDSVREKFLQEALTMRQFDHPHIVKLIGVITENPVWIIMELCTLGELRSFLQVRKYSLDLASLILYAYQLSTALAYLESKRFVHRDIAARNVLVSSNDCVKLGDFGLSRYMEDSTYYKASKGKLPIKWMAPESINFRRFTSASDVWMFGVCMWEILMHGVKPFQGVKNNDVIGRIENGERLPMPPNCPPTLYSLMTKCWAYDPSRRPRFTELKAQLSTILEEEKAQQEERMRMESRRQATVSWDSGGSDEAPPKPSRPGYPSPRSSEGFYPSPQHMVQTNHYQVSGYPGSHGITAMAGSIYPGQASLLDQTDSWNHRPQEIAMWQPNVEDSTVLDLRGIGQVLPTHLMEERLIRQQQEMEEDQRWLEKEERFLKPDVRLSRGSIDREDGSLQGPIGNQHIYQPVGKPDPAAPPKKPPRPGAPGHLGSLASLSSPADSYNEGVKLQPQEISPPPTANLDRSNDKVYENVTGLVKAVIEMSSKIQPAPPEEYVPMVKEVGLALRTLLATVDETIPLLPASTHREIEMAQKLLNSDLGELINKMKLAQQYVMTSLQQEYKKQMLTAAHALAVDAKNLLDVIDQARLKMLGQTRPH
T1 sequence (O43683 whole entry): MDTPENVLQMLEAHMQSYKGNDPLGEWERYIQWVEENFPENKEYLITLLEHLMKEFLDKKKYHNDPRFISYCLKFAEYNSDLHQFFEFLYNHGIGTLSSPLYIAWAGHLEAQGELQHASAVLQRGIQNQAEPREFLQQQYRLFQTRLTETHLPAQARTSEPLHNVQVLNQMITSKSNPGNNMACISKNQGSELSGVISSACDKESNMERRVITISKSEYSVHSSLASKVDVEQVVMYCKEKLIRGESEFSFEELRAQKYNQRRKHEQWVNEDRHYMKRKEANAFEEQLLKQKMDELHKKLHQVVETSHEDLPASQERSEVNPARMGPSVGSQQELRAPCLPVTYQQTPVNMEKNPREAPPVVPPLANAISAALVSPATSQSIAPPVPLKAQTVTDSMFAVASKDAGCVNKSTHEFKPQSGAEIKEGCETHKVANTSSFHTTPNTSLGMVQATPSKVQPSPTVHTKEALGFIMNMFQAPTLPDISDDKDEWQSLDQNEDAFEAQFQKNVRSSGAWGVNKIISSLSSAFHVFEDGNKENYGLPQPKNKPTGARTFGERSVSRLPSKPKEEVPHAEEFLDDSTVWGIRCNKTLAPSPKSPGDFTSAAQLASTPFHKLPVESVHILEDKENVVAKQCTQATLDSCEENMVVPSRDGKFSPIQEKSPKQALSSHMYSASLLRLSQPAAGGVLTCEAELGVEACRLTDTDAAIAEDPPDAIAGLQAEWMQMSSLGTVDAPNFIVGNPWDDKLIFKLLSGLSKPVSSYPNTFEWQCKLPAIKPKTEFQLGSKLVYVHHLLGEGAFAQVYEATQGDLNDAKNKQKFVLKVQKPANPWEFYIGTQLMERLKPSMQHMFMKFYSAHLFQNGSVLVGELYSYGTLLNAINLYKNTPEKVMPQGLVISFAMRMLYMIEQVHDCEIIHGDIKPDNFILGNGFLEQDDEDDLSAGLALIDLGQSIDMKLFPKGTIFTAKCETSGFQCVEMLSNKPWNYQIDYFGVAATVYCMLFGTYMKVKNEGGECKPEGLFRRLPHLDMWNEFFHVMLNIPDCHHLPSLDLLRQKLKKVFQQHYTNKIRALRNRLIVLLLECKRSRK
T4 sequence (P16591 whole entry): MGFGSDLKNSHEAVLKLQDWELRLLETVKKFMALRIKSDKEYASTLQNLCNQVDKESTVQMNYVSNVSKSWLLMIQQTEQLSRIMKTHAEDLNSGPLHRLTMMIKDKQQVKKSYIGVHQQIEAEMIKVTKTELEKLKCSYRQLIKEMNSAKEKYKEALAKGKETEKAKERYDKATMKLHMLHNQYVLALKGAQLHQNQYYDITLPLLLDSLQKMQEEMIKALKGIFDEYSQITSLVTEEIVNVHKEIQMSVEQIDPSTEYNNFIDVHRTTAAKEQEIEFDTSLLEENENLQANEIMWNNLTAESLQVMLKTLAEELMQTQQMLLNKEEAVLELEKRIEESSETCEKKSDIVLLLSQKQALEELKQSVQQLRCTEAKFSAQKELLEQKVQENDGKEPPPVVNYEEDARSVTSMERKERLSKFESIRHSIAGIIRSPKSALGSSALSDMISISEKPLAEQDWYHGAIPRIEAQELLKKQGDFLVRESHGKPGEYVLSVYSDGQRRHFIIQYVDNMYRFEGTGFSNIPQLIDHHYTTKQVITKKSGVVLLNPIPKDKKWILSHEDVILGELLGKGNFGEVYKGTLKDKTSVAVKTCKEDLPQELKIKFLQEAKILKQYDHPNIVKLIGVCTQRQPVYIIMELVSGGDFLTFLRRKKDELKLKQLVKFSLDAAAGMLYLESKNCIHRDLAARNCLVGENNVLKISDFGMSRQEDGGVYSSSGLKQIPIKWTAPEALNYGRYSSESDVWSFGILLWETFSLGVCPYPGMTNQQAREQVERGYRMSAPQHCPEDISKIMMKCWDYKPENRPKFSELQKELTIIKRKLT

## N#CCc1ccc(Nc2nc(NCCCN)cc(Nc3cc(C4CC4)[nH]n3)n2)cc1 [KAM]
BUB1; [1]
  IC50: > 10 µM
BUB1; relative to 0 uM KAM = 0
  0.001 uM KAM: -0.05097
  0.01 uM KAM: -0.002823
  0.1 uM KAM: -0.07998
  1 uM KAM: -0.1399
  10 uM KAM: -0.1894
CDK5; 0.001 uM KAM
  median Log10 fold change: 0.003574
CDK5; 0.01 uM KAM
  median Log10 fold change: 0.001841
CDK5; 0.1 uM KAM
  median Log10 fold change: -0.2018
CDK5; 1 uM KAM
  median Log10 fold change: -0.5013
CDK5; 10 uM KAM
  median Log10 fold change: -0.5902
CDK5; [2]
  IC50: 0.298 µM
FAM20B; [1]
  IC50: > 10 µM
FAM20B; relative to 0 uM KAM = 0
  0.001 uM KAM: -0.03245
  0.01 uM KAM: -0.03308
  0.1 uM KAM: -0.01554
  1 uM KAM: -0.05098
  10 uM KAM: 0.1003
FER; 0.001 uM KAM
  median Log10 fold change: -0.01643
FER; 0.01 uM KAM
  median Log10 fold change: -0.02602
FER; 0.1 uM KAM
  median Log10 fold change: -0.1873
FER; 1 uM KAM
  median Log10 fold change: -0.4903
FER; 10 uM KAM
  median Log10 fold change: -0.6195
FER; [2]
  IC50: 0.319 µM
LIMK2; [1]
  IC50: > 10 µM
LIMK2; relative to 0 uM KAM = 0
  0.001 uM KAM: -0.04927
  0.01 uM KAM: -0.08611
  0.1 uM KAM: -0.1176
  1 uM KAM: -0.1595
  10 uM KAM: 0.03187
PHKG2; 0.001 uM KAM
  median Log10 fold change: 0.003099
PHKG2; 0.01 uM KAM
  median Log10 fold change: -0.03027
PHKG2; 0.1 uM KAM
  median Log10 fold change: -0.2223
PHKG2; 1 uM KAM
  median Log10 fold change: -0.4221
PHKG2; 10 uM KAM
  median Log10 fold change: -0.5566
PHKG2; [2]
  IC50: 0.338 µM
PTK2; 0.001 uM KAM
  median Log10 fold change: 0.001005
PTK2; 0.01 uM KAM
  median Log10 fold change: -0.00785
PTK2; 0.1 uM KAM
  median Log10 fold change: -0.1794
PTK2; 1 uM KAM
  median Log10 fold change: -0.5062
PTK2; 10 uM KAM
  median Log10 fold change: -0.5675
PTK2; [2]
  IC50: 0.335 µM
STK17A; 0.001 uM KAM
  median Log10 fold change: -0.02395
STK17A; 0.01 uM KAM
  median Log10 fold change: -0.004192
STK17A; 0.1 uM KAM
  median Log10 fold change: -0.2117
STK17A; 1 uM KAM
  median Log10 fold change: -0.3947
STK17A; 10 uM KAM
  median Log10 fold change: -0.5099
STK17A; [2]
  IC50: 0.457 µM
VRK1; [1]
  IC50: > 10 µM
VRK1; relative to 0 uM KAM = 0
  0.001 uM KAM: 0.05319
  0.01 uM KAM: 0.02372
  0.1 uM KAM: 0.08305
  1 uM KAM: 0.1248
  10 uM KAM: 0.03089
